Consider six compounds from patent US7858612B2, “Therapeutic agent for inflammatory bowel diseases” (Meiji Seika Kaisha, Ltd., priority 2007, dated 2010).

Read-outs that look alike come from different tables or passages of the source. Marks after values point to notes of the source that are not given here.

One data set concerns DSS induced IBD model. The experiment in a line: 3% dextran sulfate sodium (DSS) induced acute rat IBD model (prophylactic effect). The class given is in vivo, Wistar rats. The conditions noted are these: for inhibition at 1 mg/kg/day / inhibition at 100 mg/kg/day: Rattus norvegicus, po, read-out: Inhibition rate (%); for Feces score: Table 3 (effectiveness on feces score). From the text: IBD was induced by freely allowing male 7 week-old Wistar rats (purchased from Japan SLC, Inc.) to ingest 3% DSS solution (n=8). In the period of 7 days after initiating DSS administration, soft feces and blood feces scores were observed according to the following basis, and the sum of the soft feces score and blood feces score was obtained as the feces score of the individual animal.
• Soft feces score (0 to 3) • [0: nothing abnormal detected (NAD), • 1: slightly soft, • 2: soft, • 3: diarrhea] • Blood feces score (0 to 3) • [0: nothing abnormal detected (NAD), • 1: blood in feces, • 2: bright-red blood adhered on feces, • 3: melena]
1% Evans blue physiological saline was intravenously injected in an amount of 1 ml per rat 8 days after DSS exposure, and the animal was euthanized 30 minutes after that for excising the large intestine. After immobilizing the large intestine in the length of 7 to 8 cm from anus with 4% formalin buffer for 20 minutes, the intestine was longitudinally opened from the mesenterium side for photographing the rectal portion. Ulcer area was calculated by image analysis.
Compound A (10 mg/kg/day), or. sulfasalazine (100 mg/kg/day) or prednisolone (1 mg/kg/day) as a control compound was made into suspension in an agate mortar, which was orally administered twice a day at a dose of 5 ml/kg to each rat starting from a day before administration of DSS to a day before dissection. In this connection, 1% hydroxypropylmethyl cellulose solution (HPMC) was used as a solvent, which was administered at a dose of 5 ml/kg to the solvent treated group.

A further data set has as its system TNBS induced IBD model. The data set can be described thus: Trinitrobenzene sulfonic acid (TNBS) induced rat IBD model (therapeutic effect). It counts as in vivo, SD rats. The settings on record: for Colonic ulceration score: 3 mg/kg × 2 oral. The procedure: 8 week-old male SD rats (purchased from Charles River
Laboratories Japan, Inc.) were intrarectally treated with TNBS to induce enteritis, and divided into groups 2 days after the treatment with TNBS to initiate the administration of the drugs. A solvent, Compound A (2, 20, 50 mg/kg/day), or prednisolone (6 mg/kg/day) was orally administered twice a day, and the rats were subjected to autopsy 8 days after administration for determining the macro observation score. The evaluation of the score was conducted by the method described in Table 4 according to the judgment method by JOHN L. WALLACE et al. (Gastroenterology 1989; 96: 29-36).
Furthermore, the large intestine was cut to a length of 10 cm for measuring the wet weight of intestine.

The next data set relates to splenocytes. The experiment in a line: Direct effect on the activation of T cells: cytokine production by ovalbumin-stimulated splenocytes (ELISA). It counts as cell-based, Balb/c mice. The conditions noted are these: for Production of IFNγ / Production of IL-2 / Production of IL-5: culture for 24 hours. Here is the method: 7 week-old male Balb/c mice (purchased from Japan SLC, Inc.) were sensitized with an aluminum hydroxide gel-ovalbumin suspension administered intraperitoneally or subcutaneously in both inguinal regions on the first and 14th days, and the spleen was excised on the 21st day for preparing a splenocyte suspension. After removal of erythrocytes, Compound B (10 μM) and ovalbumin were added to splenocytes suspended in a culture medium, and the mixture was cultured at 37° C. under a condition of 5% CO2.
IL-4 in the supernatant after culture for 6 hours, and IL-2, IL-5 and IFNγ in the supernatant after culture for 24 hours were quantitatively determined by ELISA (ELISA kit manufactured by ENDOGEN).

The test system of data set [1] is DSS induced rat IBD chronic model. The data set can be described thus: DSS induced rat IBD chronic model (therapeutic effect). The class given is in vivo, Wistar rats. The procedure:
Colitis was induced by freely allowing male 7 week-old Wistar rats (purchased from Japan SLC, Inc.) to ingest 3% DSS solution for 3 days, and subsequently chronic IBD was induced by freely allowing to ingest 1% DSS solution starting from the 4th day of the test.
Compound A (2, 20 mg/kg/day), 5-aminosalicylic acid as a control (5-ASA: 200 mg/kg/day) and cyclosporine A (Cy A: 25 mg/kg/day) were administered to the animals starting from the 4th day of the test until the day of dissection (n=8 to 20).
The property of feces in individual animal was observed until the day before dissection, and the soft feces score and the blood feces score were determined according to the same basis as shown in Test Example 3 to obtain the sum of the soft feces score and blood feces score as the feces score.
Also, 1% Evans blue physiological saline was intravenously injected in an amount of 1 ml per rat on the day of dissection, and the animal was euthanized 30 minutes after that for excising the large intestine. After immobilizing the large intestine in the length of 7 to 8 cm from anus with 4% formalin buffer for 20 minutes, the intestine was longitudinally opened from the mesenterium side for photographing the rectal portion and measuring the rectum weight. The state and extent of eroded rectal portion were scored according to the following basis for making a macro observation score.
Macro observation score (0-5)
[0: normal, • 1: erosion formation in narrow ranges, • 2: weak erosion formation, without bleeding, • 3: moderate erosion formation and weak bleeding in narrow ranges, • 4: strong erosion formation and bleeding in narrow ranges, • 5: strong erosion formation and bleeding in wide ranges]
A therapeutic effect of Compound B orally administered was examined in the same manner as in Test Example 4 except that Compound B (20 mg/kg/day) was used in place of Compound A (n=12).

The test system of data set [2] is carrageenin induced paw edema in rats. The experiment in a line: Carrageenin induced paw edema in rats. The class given is in vivo, Wistar rats. The procedure: To right hind paws of male 7 week-old Wistar rats (purchased from Japan SLC, Inc.) 0.1 ml of 1% λ-carrageenin was subcutaneously injected to cause paw edema reaction (n=5). Compound A at doses of 1 to 25 mg/kg and indomethacin at a dose of 5 mg/kg were orally administered 15 and 60 minutes before administration of carrageenin, respectively.
Three hours after administration of carrageenin, when the paw edema reaction reached maximum, the effectiveness was evaluated from the volumes of the right hind paw edema.
A general note: The carrageenan paw model is a standard test of acute inflammation.

Data set [3] is described as follows: Test for converting Compound A into Compound B (oral 14C Compound A, Radio-HPLC). The class given is in vivo, Wistar rats. The procedure:
Male 8 week-old Wistar rats (purchased from Japan SLC, Inc.) under fasting conditions were orally administered with ^14C labeled Compound A at a dose of 1 mg/kg, and the amounts of Compound B in plasma, urine and bile were determined by Radio-HPLC.

Another data set deals with IBD. The settings on record: ulcerative colitis and Crohn's disease, literature; cited from earlier work.

As a reminder, the inhibition is the change of the read-out against control, counted positive when it falls.

On to `C[C@]12C=CC(=O)C=C1CC[C@@H]1[C@@H]2[C@@H](O)C[C@@]2(C)[C@H]1CC[C@]2(O)C(=O)CO` [Prednisolone, prednisolone, reference compound], for which the “Weight gain (side effect)” value with DSS induced IBD model (1 mg/kg/day oral) is recorded as “significant weight gain inhibitory effect”. Besides, the inhibition at 1 mg/kg/day in the data set on DSS induced IBD model (Table 2 (ulcer area reduction effect), 1 mg/kg/day oral) came to 26.1%; in the data set on DSS induced IBD model (Table 3 (feces score), 1 mg/kg/day oral) it was 40.7%. In the data set with DSS induced IBD model (Table 2 (title: ulcer area reduction effect), 1 mg/kg/day oral, twice a day, mean ± SE), this compound displayed a ulcer area of 337.5 ± 34.1. In the data set on DSS induced IBD model (1 mg/kg/day oral, mean ± SE), this compound yielded a Feces score of 2.00 ± 0.42. The Colonic ulceration score in the data set with TNBS induced IBD model (from 2 days after TNBS) is recorded as 3.0 ± 0.5^b; with TNBS induced IBD model (Table 6 (title: colonic wet weight of large intestine, 10 cm)) it was 1.05 ± 0.09^bb. Further, the Weight gain entry with TNBS induced IBD model (6 mg/kg/day oral) is “remarkable inhibition of (P<0.01) weight gain”. The “Production of IFNγ” value in the data set with splenocytes (concentration not given) is recorded as “almost completely inhibited”. Besides, in the data set with splenocytes (concentration not given), the “Production of IL-2” value is on record as “almost completely inhibited”. Moreover, the “Production of IL-5” value in the data set on splenocytes (concentration not given) is given as “almost completely inhibited”.
For the compound `Nc1ccc(O)c(C(=O)O)c1` [Compound 5-ASA, 5-aminosalicylic acid, reference compound], the “Inhibitory effects in any evaluation items” value in data set [1] (200 mg/kg/day from 4th day) is reported as “significant inhibitory effects were not recognized”.
`COc1ccc2c(c1)c(CC(=O)O)c(C)n2C(=O)c1ccc(Cl)cc1` [Indomethacin, indomethacin, reference compound]: the “Inhibitory effect on paw edema” value in data set [2] (5 mg/kg oral) is recorded as “significant (p<0.01) inhibitory effect”. In data set [2] (5 mg/kg oral 60 min before carrageenin, 3 h after carrageenin, mean ± SE), this compound came in with a Volume of edema of 0.48 ± 0.04 mL.
Regarding `O=C(O)c1cc(/N=N/c2ccc(S(=O)(=O)Nc3ccccn3)cc2)ccc1O` [Sulfasalazine, sulfasalazine], the inhibition at 100 mg/kg/day stood at 8.2% in the data set on DSS induced IBD model (Table 2 (ulcer area reduction effect), 100 mg/kg/day oral) and 22.2% in the data set on DSS induced IBD model (Table 3 (feces score), 100 mg/kg/day oral). This compound showed a Feces score with DSS induced IBD model (100 mg/kg/day oral, mean ± SE) of 2.63 ± 0.50.
With `COc1cc2[nH]c(=O)c3nn[nH]c3c(=O)c2cc1OC` [Compound B, 7,8-dimethoxy-4(5H),10-dioxo-1H-1,2,3-triazolo[4,5-c][1]benzoazepine], the Detection in plasma entry in data set [3] (15 minutes after oral 14C labeled Compound A 1 mg/kg, fasting rats) is given as “detected as the main metabolite”. In addition, the Detection in bile entry in data set [3] (bile collected for 8 hours after oral 14C labeled Compound A 1 mg/kg) is given as “detected as the main metabolite”. Also, in data set [3] (urine collected for 24 hours after oral 14C labeled Compound A 1 mg/kg), the Detection in urine result is listed as “detected as the main metabolite”. Besides, the “Effect on macro observation score” value in data set [1] (20 mg/kg/day oral) is given as “an inhibitory effect was recognized”. In addition, the “Feces score on the day before dissection” value in data set [1] (20 mg/kg/day oral, n=12, solvent treated group 1.9±0.25, P<0.05) came to 0.9±0.24. The “Side effects such as inhibition of weight gain” value in data set [1] (rat, in vivo) is “not observed”. Also, in the data set with splenocytes (10 μM, culture for 6 hours), the “Production of IL-4” value is “did not inhibit”. Further, in the data set with splenocytes (10 μM), the “Production of IFNγ” value was “did not inhibit”, the “Production of IL-2” value is recorded as “did not inhibit” and the “Production of IL-5” value is given as “did not inhibit”.
On to `O=C([O-])c1cc(=O)c2c(OCC(O)COc3cccc4oc(C(=O)[O-])cc(=O)c34)cccc2o1.[Na+].[Na+]` [disodium cromoglycate], for which the “Effectiveness against IBD” value in the data set with IBD is recorded as “ineffective against IBD”.
